The values that follow are results of earlier work, collected in US5773459A, “Urea- and thiourea-type compounds” (Sugen, Inc., priority 1995, dated 1998).

Data set [1] deals with IGF-1R protein tyrosine kinase. As to conditions: Sepp-Lorenzino et al., Abstract, 1994; cited from earlier work.
Data set [2] concerns human breast cancer cells. As to conditions: Sepp-Lorenzino et al., Abstract, 1994; cited from earlier work.

Take `CO[C@H]1[C@@H](OC)C[C@H](C)[C@@H](OC)C2=CC(=O)C=C(NC(=O)/C(C)=C/C=C\[C@H](OC)[C@@H](OC(N)=O)/C(C)=C/[C@@H]1C)C2=O` [Herbimycin A]: the “inhibition of the IGF-1R protein tyrosine kinase” value in data set [1] is recorded as “inhibit”. In addition, the “inhibition of cellular proliferation in human breast cancer cells” value in data set [2] was “inhibit”.
